Here are results for 19 compounds from ChEMBL document CHEMBL1148791, “High-throughput screening of drug-brain tissue binding and in silico prediction for assessment of central nervous system drug delivery” (J Med Chem, 2007).

Series [1] can be described thus: physchem. The following applies: buffer, pH 7.4.
The nature of series [2]: physchem.
Description: Acid dissociation constant, pKa of the compound
The conditions of series [3]: buffer, pH 7.4.
Series [4] in a line: Fraction unbound ligand in rat lung after 20 hrs. The class given is ADME, tissue-based. As to conditions: lung tissue.
A short description of series [5]: Fraction unbound ligand in rat brain after 20 hrs. Format: ADME, tissue-based. The following applies: brain tissue.
Series [6] in a line: Fraction unbound ligand in rat adrenal gland after 20 hrs. The class given is ADME, tissue-based. As to conditions: adrenal gland tissue.
Series [7] is described as follows: Fraction unbound ligand in rat brown fat tissue after 20 hrs. Format: ADME, tissue-based, Adipose tissue.

For orientation: logD means the decadic logarithm of the distribution of all forms, ionised or not, between an organic phase and buffer at a given pH. Lower therefore signals lower lipophilicity. For orientation: pKa means the pH at which an ionisable group is half protonated. As usually defined, the Log D is the decadic logarithm of the distribution of all forms, ionised or not, between an organic phase and buffer at a given pH. Read a low Log D as a more hydrophilic compound. Usually fraction unbound stands for the share of the substance not bound to proteins or other matrix. Read a high fraction unbound as weak binding.

The compound `CN(C)CCCN1c2ccccc2Sc2ccc(Cl)cc21` [CHLORPROMAZINE] showed a logD in series [1] of 3.7.

On to `COCCCC/C(=N\OCCN)c1ccc(C(F)(F)F)cc1` [FLUVOXAMINE], for which the pKa in series [2] came out at 9.4.

Consider `OCCOCCN1CCN(C(c2ccccc2)c2ccc(Cl)cc2)CC1` (stereo unspecified) [HYDROXYZINE], for which, in series [3], the “Log D” value is 0.18. The pKa in series [2] was found to be 7.75.

Regarding `CN1CCN(C2=Nc3cc(Cl)ccc3Nc3ccccc32)CC1` [CLOZAPINE], in series [1], the logD stood at 3.46.

For the compound `Cc1ncc2n1-c1ccc(Cl)cc1C(c1ccccc1F)=NC2` [MIDAZOLAM], the logD in series [1] amounted to 2.5. In series [2], the pKa is 5.44.

In series [1], `CNCCC=C1c2ccccc2CCc2ccccc21` [NORTRIPTYLINE] showed a logD of 2.23. The same compound registered a pKa in series [2] of 10.4.

In the case of `CC(C)NCC(O)COc1cccc2ccccc12` (stereo unspecified) [PROPRANOLOL], the fraction unbound at 20 h in series [4] turned out to be 0.053; in series [5], 0.021; in series [6] it was 0.01; in series [7], 0.097.

Compound `O=c1n(CCCN2CCN(c3cccc(Cl)c3)CC2)nc2ccccn12` [TRAZODONE] displayed a logD in series [1] of 2.97. In series [2], this compound had a pKa of 6.73.

Turning to `COC(=O)[C@H](c1ccccc1)C1CCCCN1` (stereo partly specified) [METHYLPHENIDATE], the logD in series [1] was -0.15. In series [2], this compound had a pKa of 9.24.

`NC(=O)N1c2ccccc2C=Cc2ccccc21` [CARBAMAZEPINE] gave a logD in series [1] of 1.77.

`O=C(CCCN1CCC(O)(c2ccc(Cl)cc2)CC1)c1ccc(F)cc1` [HALOPERIDOL] returned a logD in series [1] of 0.18.

Compound `O=C1CC2(CCCC2)CC(=O)N1CCCCN1CCN(c2ncccn2)CC1` [BUSPIRONE] registered a pKa in series [2] of 7.8.

With `Cc1ccc(-c2nc3ccc(C)cn3c2CC(=O)N(C)C)cc1` [ZOLPIDEM], in series [1], the logD stood at 2.35. In series [2], this compound displayed a pKa of 6.02.

With `Fc1ccc([C@@H]2CCNC[C@H]2COc2ccc3c(c2)OCO3)cc1` [PAROXETINE], the log distribution coefficient (logD) in series [1] is 2.27. This compound also registered a pKa in series [2] of 10.1.

For `Cc1nc2n(c(=O)c1CCN1CCC(c3noc4cc(F)ccc34)CC1)CCCC2` [RISPERIDONE], the logD in series [1] was 1.66.

In series [1], `CN(C)CCC=C1c2ccccc2C=Cc2ccccc21` [CYCLOBENZAPRINE] came in with a logD of 2.92. The pKa in series [2] was found to be 9.69.

As to `COc1ccc2c3c1O[C@H]1C(=O)CC[C@H]4[C@@H](C2)N(C)CC[C@]314` [HYDROCODONE], in series [1], the logD was found to be 3.38. This compound also returned a pKa in series [2] of 8.43.

`CCCC(C)(COC(N)=O)COC(=O)NC(C)C` (stereo unspecified) [CARISOPRODOL]: the logD in series [1] stood at 2.4.

Take `COc1ccc(C(CN(C)C)C2(O)CCCCC2)cc1` (stereo unspecified) [VENLAFAXINE]: the logD in series [1] is 0.88.
